According to patent US20180353457A1, “ABIETANE DITERPENOID 7-ACETOXYROYLEANONES FOR USE IN CANCER TREATMENT” (University of South Carolina, priority 2017, published 2018):

What was measured:
[1] = system: HOP-92 (non-small cell lung cancer) cells; test: NCI-60 five dose screen, HOP-92; conditions: Homo sapiens, HOP-92, read-out: LC50
[2] = system: NCI-H522 (non-small cell lung cancer) cells; test: NCI-60 five dose screen, NCI-H522; conditions: Homo sapiens, NCI-H522, read-out: LC50
[3] = system: HCC-2996 (colon cancer) cells; test: NCI-60 five dose screen, HCC-2996; conditions: read-out: LC50
[4] = system: OVCAR-3 (ovarian cancer) cells; test: NCI-60 five dose screen, OVCAR-3; conditions: Homo sapiens, OVCAR-3, read-out: LC50
[5] = system: RXF 393 (renal cancer) cells; test: NCI-60 five dose screen, RXF 393; conditions: Homo sapiens, RXF 393, read-out: LC50
[6] = system: DU-145 (prostate cancer) cells; test: NCI-60 five dose screen, DU-145; conditions: Homo sapiens, DU-145, read-out: LC50
[7] = system: MDA-MB-468 (breast cancer) cells; test: NCI-60 five dose screen, MDA-MB-468; conditions: Homo sapiens, MDA-MB-468, read-out: LC50
[8] = system: SK-MEL-5 (melanoma) cells; test: NCI-60 five dose screen, SK-MEL-5; conditions: Homo sapiens, SK-MEL-5, read-out: LC50
[9] = system: SF-295 (CNS cancer) cells; test: NCI-60 five dose screen, SF-295; conditions: Homo sapiens, SF-295, read-out: LC50
[10] = system: A498 (renal cancer) cells; test: NCI-60 five dose screen, A498; conditions: Homo sapiens, A498, read-out: LC50
[11] = system: MDA-MB-435 (melanoma) cells; test: NCI-60 five dose screen, MDA-MB-435; conditions: Homo sapiens, MDA-MB-435, read-out: LC50
[12] = system: COLO 205 (colon cancer) cells; test: NCI-60 five dose screen, COLO 205; conditions: Homo sapiens, COLO 205, read-out: LC50

COc1cccc2c1C(=O)c1c(O)c3c(c(O)c1C2=O)C[C@@](O)(C(=O)CO)C[C@@H]3O[C@H]1C[C@H](N)[C@H](O)[C@H](C)O1 [Doxorubicin, doxorubicin, reference compound] showed a CC50 [1] of 20.9 µM, a CC50 [2] of 9.33 µM and a CC50 [3] of 6.76 µM. It also gave a CC50 [4] of 23.4 µM, a CC50 [5] of 4.79 µM and a CC50 [6] of 23.4 µM. The CC50 [7] was 2.45 µM, the CC50 [8] was 1.62 µM and the CC50 [9] was 19.1 µM. For the same compound, the CC50 [10] was 3.72 µM, the CC50 [11] was 2.88 µM and the CC50 [12] was 4.9 µM.
